From US11352320B2 (Merck Sharp & Dohme Corp., priority 2018, dated 2022)
Structures can show the parent of a compound that is named as a salt.

Target: IDO1 (Homo sapiens, UniProt P14902)
Assay: IDO1 Cellular Assay in Hela Cells Stimulated with IFNγ
Assay type: cell-based
Parameters: endogenous in cells; host or cells: HeLa cells stimulated with IFNγ
Settings: IFNγ 100 ng/mL, 300 uM L-tryptophan, about 48 hours, fluorescence readout, read-out: IDO1 HELA Cell Assay, IC50
Method: Biological Assays IDO1 Cellular Assay in Hela Cells Stimulated with IFNγ
Hela cells were cultured in complete Hela culture medium (90% EMEM, 10% heat-inactivated fetal bovine serum) and expanded to about 1×10^9 cells. The cells were then collected and frozen down at 1×10^7 cells/vial in 1 mL frozen medium (90% complete Hela culture medium, 10% DMSO)
Compounds to be tested were serially diluted in ten 3-fold steps in DMSO starting from 10 mM DMSO stocks in Echo low volume plate(s). Compound dilutions or DMSO alone were then dispensed from the dilution plate(s) into Greiner black 384-well assay plate(s) (catalog #781086, 50 nL/well) using an Echo 550 acoustic liquid handler (Labcyte).
Frozen Hela cells were thawed and transferred into Hela assay medium (99% complete Hela culture medium, 1% Pen/Strep) with 20 mL medium/vial of cells. The cells were spun down at 250 g in a table top centrifuge for 5 min and suspended in same volume of Hela assay medium. The cells were then counted and adjusted to a density of 2×10^5 cells/ml in Hela assay medium. Sterile L-tryptophan were added to the cells with final concentration of 300 uM L-tryptophan. A small aliquot (2 mL/plate) of Hela cells were set aside and were not treated with IFNγ, to serve as the Max-E control. The rest of Hela cells were added with sterile IFNγ (Cat #285-IF, R & D systems) with a final concentration of 100 ng/mL.
Hela cells with and without IFNγ were dispensed to the respective wells of 384-well assay plates containing the compounds. The plates were incubated for about 48 hours at a 37° C., 5% CO2 incubator. Afterwards, 12 μL of 0.5 M methyl isonipecotate in dimethyl sulfoxide were added into each well and the plates were sealed and incubated at 37° C. without CO2 overnight. The plates were centrifuged for 1 min at 200×g. The resulting fluorescence was measured in a Spectramax plate reader (Molecular Devices) with a 400 nm excitation filter and a 510 nm emission filter.
The fluorescence intensity of each well was corrected for the background observed in wells with non-IFNγ-treated cells and was expressed as a fraction of the intensity observed in wells of IFNγ-treated cells and DMSO only. Potencies were calculated by linear least squares fit to the four parameter logistic IC50 equation.
Compounds disclosed herein generally have IC50 of about 1 nM to about 1,000 nM, or more specifically, about 2 nM to about 800 nM, or more specifically, about 5 nM to about 600 nM, or still more specifically, about 10 nM to about 500 nM. Such a result is indicative of the intrinsic activity of the compounds in use as an inhibitor of an IDO enzyme.

Sequence of IDO1 (P14902 whole entry): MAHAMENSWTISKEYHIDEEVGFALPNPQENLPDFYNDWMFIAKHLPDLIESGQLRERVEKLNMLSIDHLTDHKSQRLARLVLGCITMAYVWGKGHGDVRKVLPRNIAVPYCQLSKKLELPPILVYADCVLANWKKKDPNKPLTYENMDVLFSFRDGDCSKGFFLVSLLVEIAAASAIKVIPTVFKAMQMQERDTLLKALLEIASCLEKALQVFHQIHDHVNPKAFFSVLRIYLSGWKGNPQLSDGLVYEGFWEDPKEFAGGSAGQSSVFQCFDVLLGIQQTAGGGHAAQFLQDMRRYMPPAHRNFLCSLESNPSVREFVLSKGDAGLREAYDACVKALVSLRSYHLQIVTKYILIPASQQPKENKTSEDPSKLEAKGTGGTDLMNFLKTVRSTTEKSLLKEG

## Cc1nccc(NC23CC(C(C)C(=O)Nc4ccc(Cl)cc4)(C2)C3)n1 (racemic) [Example 1, N-(4-chlorophenyl)-2-(3-((2-methylpyrimidin-4-yl)amino)bicyclo[1.1.1]pentan-1-yl)propanamide]
  IC50: 33.3 nM

## Cc1nccc(NC23CC([C@H](C)C(=O)Nc4ccc(Cl)cc4)(C2)C3)n1 (single isomer, unassigned) [Example 2, N-(4-chlorophenyl)-2-(3-((2-methylpyrimidin-4-yl)amino)bicyclo[1.1.1]pentan-1-yl)propanamide]
  IC50: 33.3 nM

## Cc1nccc(NC23CC([C@H](C)C(=O)Nc4ccc(Cl)cc4)(C2)C3)n1 (single isomer, unassigned) [Example 3, N-(4-chlorophenyl)-2-(3-((2-methylpyrimidin-4-yl)amino)bicyclo[1.1.1]pentan-1-yl)propanamide]
  IC50: 428 nM

## CC(C(=O)Nc1ccc(F)cc1)C12CC(Nc3ncnc4ccccc34)(C1)C2 (single isomer, unassigned) [Example 4, N-(4-fluorophenyl)-2-(3-(quinazolin-4-ylamino)bicyclo[1.1.1]pentan-1-yl)propanamide]
  IC50: 388 nM

## Cc1nc(NC23CC(C(C)C(=O)Nc4ccc(F)cc4)(C2)C3)c2cc(F)ccc2n1 (single isomer, unassigned) [Example 6]
  IC50: 590 nM

## Cc1nc(NC23CC(C(C)C(=O)Nc4ccc(F)cc4)(C2)C3)c2cc(F)ccc2n1 (single isomer, unassigned) [Example 7]
  IC50: 17.7 nM

## CC(C(=O)Nc1ccc(F)cc1)C12CC(Nc3nc(Cl)nc4c3CCC4)(C1)C2 (single isomer, unassigned) [Example 8, 2-(3-((2-chloro-6,7-dihydro-5H-cyclopenta[d]pyrimidin-4-yl)amino)bicyclo[1.1.1]pentan-1-yl)-N-(4-fluorophenyl)propanamide]
  IC50: 330 nM

## CC(C(=O)Nc1ccc(F)cc1)C12CC(Nc3nc(Cl)nc4c3CCC4)(C1)C2 (single isomer, unassigned) [Example 9, 2-(3-((2-chloro-6,7-dihydro-5H-cyclopenta[d]pyrimidin-4-yl)amino)bicyclo[1.1.1]pentan-1-yl)-N-(4-fluorophenyl)propanamide]
  IC50: 11.1 nM

## CC(C(=O)Nc1ccc(F)cc1)C12CC(Nc3ncnc4ccc(F)cc34)(C1)C2 (single isomer, unassigned) [Example 10, N-(4-fluorophenyl)-2-(3-((6-fluoroquinazolin-4-yl)amino)bicyclo[1.1.1]pentan-1-yl)propanamide]
  IC50: 208 nM

## CC(C(=O)Nc1ccc(F)cc1)C12CC(Nc3nccc4cccnc34)(C1)C2 (centres unmarked) [Example 12, N-(4-fluorophenyl)-2-{3-[(1,7-naphthyridin-8-yl)amino]bicyclo[1.1.1]pentan-1-yl}propanamide]
  IC50: 587 nM

## CC(C(=O)Nc1ccc(F)cc1)C12CC(Nc3ncc(C(F)(F)F)cc3F)(C1)C2 (centres unmarked) [Example 13, N-(4-fluorophenyl)-2-(3-{[3-fluoro-5-(trifluoromethyl)pyridin-2-yl]amino}bicyclo[1.1.1]pentan-1-yl)propanamide]
  IC50: 138 nM

## Cc1nc(NC23CC(C(C)C(=O)Nc4ccc(F)cc4)(C2)C3)ccc1C(F)(F)F (centres unmarked) [Example 14, N-(4-fluorophenyl)-2-(3-{[6-methyl-5-(trifluoromethyl)pyridin-2-yl]amino}bicyclo[1.1.1]pentan-1-yl)propanamide]
  IC50: 52.4 nM

## CC(C(=O)Nc1ccc(F)cc1)C12CC(Nc3ccc(C(F)(F)F)cn3)(C1)C2 (centres unmarked) [Example 15, N-(4-fluorophenyl)-2-(3-{[5-(trifluoromethyl)pyridin-2-yl]amino}bicyclo[1.1.1]pentan-1-yl)propanamide]
  IC50: 79 nM

## CC(C(=O)Nc1ccc(F)cc1)C12CC(Nc3cc(C(F)(F)F)ncn3)(C1)C2 (centres unmarked) [Example 16, N-(4-fluorophenyl)-2-(3-{[6-(trifluoromethyl)pyrimidin-4-yl]amino}bicyclo[1.1.1]pentan-1-yl)propanamide]
  IC50: 27.2 nM

## CC(C(=O)Nc1ccc(F)cc1)C12CC(Nc3nccc(C(F)(F)F)c3C#N)(C1)C2 (centres unmarked) [Example 17, 2-(3-{[3-cyano-4-(trifluoromethyl)pyridin-2-yl]amino}bicyclo[1.1.1]pentan-1-yl)-N-(4-fluorophenyl]propanamide]
  IC50: 27.2 nM

## CC(C(=O)Nc1ccc(F)cc1)C12CC(Nc3cc(C(F)(F)F)ccn3)(C1)C2 (centres unmarked) [Example 18, N-(4-fluorophenyl)-2-(3-{[4-(trifluoromethyl)pyridin-2-yl]amino}bicyclo[1.1.1]pentan-1-yl)propanamide]
  IC50: 173 nM

## CC(C(=O)Nc1ccc(F)cc1)C12CC(Nc3c(C(F)(F)F)ccnc3F)(C1)C2 (centres unmarked) [Example 19, N-(4-fluorophenyl)-2-(3-{[2-fluoro-4-(trifluoromethyl)pyridin-3-yl]amino}bicyclo[1.1.1]pentan-1-yl)propanamide]
  IC50: 11.9 nM

## CC(C(=O)Nc1ccc(F)cc1)C12CC(Nc3ncccc3C(F)(F)F)(C1)C2 (centres unmarked) [Example 20, N-(4-fluorophenyl)-2-(3-{[3-(trifluoromethyl)pyridin-2-yl]amino}bicyclo[1.1.1]pentan-1-yl)propanamide]
  IC50: 543 nM

## CC(C(=O)Nc1ccc(F)cc1)C12CC(Nc3nccnc3C(F)(F)F)(C1)C2 (centres unmarked) [Example 21, N-(4-fluorophenyl)-2-(3-{[3-(trifluoromethyl)pyrazin-2-yl]amino}bicyclo[1.1.1]pentan-1-yl)propanamide]
  IC50: 454 nM

## CC(C(=O)Nc1ccc(F)cc1)C12CC(Nc3ncc(C(F)(F)F)cc3F)(C1)C2 (centres unmarked) [Example 22, N-(4-fluorophenyl)-2-(3-{[3-fluoro-5-(trifluoromethyl)pyridin-2-yl]amino}bicyclo[1.1.1]pentan-1-yl)propanamide]
  IC50: 166 nM

## CC(C(=O)Nc1ccc(F)cc1)C12CC(Nc3nncc4ccccc34)(C1)C2 (centres unmarked) [Example 23, N-(4-fluorophenyl)-2-{3-[(phthalazin-1-yl)amino]bicyclo[1.1.1]pentan-1-yl}propanamide]
  IC50: 183 nM

## CC(C(=O)Nc1ccc(F)cc1)C12CC(Nc3ccnc(C(F)(F)F)c3)(C1)C2 (centres unmarked) [Example 24, N-(4-fluorophenyl)-2-(3-{[2-(trifluoromethyl)pyridin-4-yl]amino}bicyclo[1.1.1]pentan-1-yl)propanamide]
  IC50: 12.6 nM

## CC(C(=O)Nc1ccc(F)cc1)C12CC(Nc3ccnc(C(F)(F)F)n3)(C1)C2 (centres unmarked) [Example 25, N-(4-fluorophenyl)-2-(3-{[2-(trifluoromethyl)pyrimidin-4-yl]amino}bicyclo[1.1.1]pentan-1-yl)propanamide]
  IC50: 94.1 nM

## CC(C(=O)Nc1ccc(F)cc1)C12CC(Nc3cccc(C(F)(F)F)n3)(C1)C2 (centres unmarked) [Example 26, N-(4-fluorophenyl)-2-(3-{[6-(trifluoromethyl)pyridin-2-yl]amino}bicyclo[1.1.1]pentan-1-yl)propanamide]
  IC50: 74.3 nM

## C[C@H](C(=O)Nc1ccc(F)cc1)C12CC(Nc3ccnc(C(F)(F)F)c3)(C1)C2 [Example 27, (S)—N-(4-fluorophenyl)-2-(3-((2-(trifluoromethyl)pyridin-4-yl)amino)bicyclo[1.1.1]pentan-1-yl)propanamide]
  IC50: 4.83 nM

## C[C@H](C(=O)Nc1ccc(F)cc1)C12CC(NCc3cccc(Cl)c3)(C1)C2 [Example 28, (S)-2-(3-((3-chlorobenzyl)amino)bicyclo[1.1.1]pentan-1-yl)-N-(4-fluorophenyl)propanamide, TFA]
  IC50: 25.7 nM

## C[C@H](C(=O)Nc1ccc(F)cc1)C12CC(NCc3cccc(C(F)(F)F)c3)(C1)C2 [Example 30, (S)-N-(4-fluorophenyl)-2-(3-((3-(trifluoromethyl)benzyl)amino)bicyclo[1.1.1]pentan-1-yl)propanamide, TFA]
  IC50: 82.3 nM

## C[C@H](C(=O)Nc1ccc(F)cc1)C12CC(N(C)Cc3cccc(C(F)(F)F)c3)(C1)C2 [Example 31, (S)-N-(4-fluorophenyl)-2-(3-(methyl(3-(trifluoromethyl)benzyl)amino)bicyclo[1.1.1]pentan-1-yl)propanamide, TFA]
  IC50: 15.1 nM

## C[C@H](C(=O)Nc1ccc(F)cc1)C12CC(NCc3ccc(Cl)c(Cl)c3)(C1)C2 [Example 32, (S)-2-(3-((3,4-dichlorobenzyl)amino)bicyclo[1.1.1]pentan-1-yl)-N-(4-fluorophenyl)propanamide, TFA]
  IC50: 51.3 nM
